From patent publication US20110021530A1, “PYRIDAZINE DERIVATIVES AND THEIR USE AS THERAPEUTIC AGENTS IN THE TREATMENT OF SKIN DISORDERS” (XENON PHARMACEUTICALS INC., priority 2008, published 2011)

Molecular target: T1, stearoyl-CoA desaturase (SCD) (Mus musculus, UniProt P13516)
T1 construct: Reactions are started by adding 2 mg of microsomal protein; from tissue; host or cells: liver microsomes of male ICR mice on a high-carbohydrate, low fat diet
T1 sequence (P13516 1-355): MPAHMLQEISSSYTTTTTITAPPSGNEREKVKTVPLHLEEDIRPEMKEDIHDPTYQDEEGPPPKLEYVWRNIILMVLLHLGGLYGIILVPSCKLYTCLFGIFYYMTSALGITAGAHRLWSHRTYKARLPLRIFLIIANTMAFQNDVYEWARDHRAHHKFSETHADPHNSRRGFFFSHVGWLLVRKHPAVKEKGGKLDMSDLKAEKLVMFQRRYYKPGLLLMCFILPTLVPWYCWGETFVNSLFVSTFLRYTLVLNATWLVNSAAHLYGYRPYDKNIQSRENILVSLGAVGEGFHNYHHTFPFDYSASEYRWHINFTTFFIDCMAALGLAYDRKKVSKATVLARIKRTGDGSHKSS
Assay: HTS microsomal assay of stearoyl-CoA desaturase inhibition using mouse liver microsomes
Assay type: biochemical
Conditions: % SCD enzyme activity remaining at 10 μM test compound
Method: The absence of mitochondrial contamination is enzymatically assessed.
The compounds are analyzed with an HTS microsomal assay.

| Mouse microsome SCD activity % remaining @ 10 μM [%] | Compound |
| --- | --- |
| 19 | CC(C)CCNC(=O)c1ccc(N2CCN(C(=O)C(C)CC(F)(F)F)CC2)nn1 (centres unmarked) [6-[4-(4,4,4-TRIFLUORO-2-METHYLBUTYRYL)PIPERAZIN-1-YL]PYRIDAZINE-3-CARBOXYLIC ACID (3-METHYLBUTYL)AMIDE] |
| 69 | COC(=O)C(CC(C)C)NC(=O)c1ccc(N2CCN(C(=O)c3ccccc3C(F)(F)F)CC2)nn1 (centres unmarked) [4-METHYL-2-({6-[4-(2-TRIFLUOROMETHYLBENZOYL)PIPERAZIN-1-YL]-PYRIDAZINE-3-CARBONYL}AMINO)PENTANOIC ACID METHYL ESTER] |
| 24 | CC(c1ccccc1C(F)(F)F)N1CCN(c2ccc(C(=O)NCCC3CC3)nn2)CC1.Cl (centres unmarked) [6-{4-[1-(2-TRIFLUOROMETHYLPHENYL)ETHYL]PIPERAZIN-1-YL}-PYRIDAZINE-3-CARBOXYLIC ACID (2-CYCLOPROPYLETHYL)AMIDE HYDROCHLORIDE] |
| 37 | CC(C)(C)OC(=O)N1CCN(c2ccc(C(=O)NCCC3CC3)nn2)CC1 [4-[6-(2-CYCLOPROPYLETHYLCARBAMOYL)PYRIDAZIN-3-YL]PIPERAZINE-1-CARBOXYLIC ACID T-BUTYL ESTER] |
| 42 | CC(C)CCNC(=O)c1ccc(N2CCN(C(=O)CCC(F)(F)F)CC2)nn1 [6-[4-(4,4,4-TRIFLUOROBUTYRYL)PIPERAZIN-1-YL]PYRIDAZINE-3-CARBOXYLIC ACID (3-METHYLBUTYL)AMIDE] |
| 0 | O=C(NCCc1ccccc1)c1ccc(N2CCN(C(=O)c3ccccc3C(F)(F)F)CC2)nn1 [6-[4-(2-Trifluoromethylbenzoyl)piperazin-1-yl]pyridazine-3-carboxylic acid phenethylamide] |
| 36 | CCC(CC)C(=O)N1CCN(c2ccc(C(=O)NCCC3CC3)nn2)CC1 [6-[4-(2-ETHYLBUTYRYL)PIPERAZIN-1-YL]PYRIDAZINE-3-CARBOXYLIC ACID (2-CYCLOPROPYLETHYL)AMIDE] |
| 82 | O=C(Nc1ccc(F)cc1)Nc1ccc(N2CCN(C(=O)c3ccccc3C(F)(F)F)CC2)nn1 [1-(4-FLUOROPHENYL)-3-{6-[4-(2-TRIFLUOROMETHYLBENZOYL)PIPERAZIN-1-YL]-PYRIDAZIN-3-YL}UREA] |
| 26 | CC(C)CCNC(=O)c1ccc(N2CCN(C(=O)C3(C(F)(F)F)CC3)CC2)nn1 [6-[4-(1-TRIFLUOROMETHYLCYCLOPROPANECARBONYL)PIPERAZIN-1-YL]-PYRIDAZINE-3-CARBOXYLIC ACID (3-METHYLBUTYL)AMIDE] |
| 29 | CC(C)CCNC(=O)c1ccc(N2CCN(C(=O)N3CCN(C)CC3)CC2)nn1 [6-[4-(4-METHYLPIPERAZINE-1-CARBONYL)PIPERAZIN-1-YL]PYRIDAZINE-3-CARBOXYLIC ACID (3-METHYLBUTYL)AMIDE] |
| 22 | O=C(NCCC1CC1)c1ccc(N2CCN(C(=O)C3CCCCC3)CC2)nn1 [6-(4-CYCLOHEXANECARBONYLPIPERAZIN-1-YL)PYRIDAZINE-3-CARBOXYLIC ACID (2-CYCLOPROPYLETHYL)AMIDE] |
| 61 | CC(C)CCNC(=O)c1ccc(N2CCN(C(=O)c3c(C(F)(F)F)nnn3Cc3ccccc3)CC2)nn1 [6-[4-(3-BENZYL-5-TRIFLUOROMETHYL-3H-[1,2,3]TRIAZOLE-4-CARBONYL)PIPERAZIN-1-YL]PYRIDAZINE-3-CARBOXYLIC ACID (3-METHYLBUTYL)AMIDE] |
| 94 | O=C(NCCC1CC1)c1ccc(N2CCN(C(=O)c3ccccn3)CC2)nn1 [6-[4-(PYRIDINE-2-CARBONYL)PIPERAZIN-1-YL]PYRIDAZINE-3-CARBOXYLIC ACID (2-CYCLOPROPYLETHYL)AMIDE] |
| 73 | O=C(Nc1ccc(N2CCN(C(=O)c3ccccc3C(F)(F)F)CC2)nn1)Nc1ccccc1F [1-(2-FLUOROPHENYL)-3-{6-[4-(2-TRIFLUOROMETHYLBENZOYL)PIPERAZIN-1-YL]-PYRIDAZIN-3-YL}UREA] |
